Legend:
[1] = Plasma pharmacokinetics of irinotecan and SN-38 with and without pimasertib; conditions: for Ratio of AUC(0–∞) test/reference / Ratio of Cmax test/reference: day 1 with pimasertib / day 15 without pimasertib
[2] = Dose-limiting toxicities and MTD of pimasertib combined with FOLFIRI; assay type: in vivo, human
[3] = Single-dose plasma pharmacokinetics of pimasertib with and without FOLFIRI; assay type: in vivo, human; conditions: for Ratio of AUC(0–∞) test/reference / Ratio of Cmax test/reference / CL/f: median; for Ratio of AUC(0–∞) test/reference / Ratio of Cmax test/reference: day 1 with FOLFIRI / day 8 alone
[4] = Treatment-emergent adverse events, FOLFIRI plus pimasertib; assay type: in vivo, human
[5] = ref Awada et al, 2012, cited from earlier work
human liver microsomes = conditions: in vitro, ref Merck, data on file; cited from earlier work
KRAS mt mCRC = test: Best overall response by RECIST v1.0, FOLFIRI plus pimasertib second-line; assay type: in vivo, human; conditions: 45 or 60 mg per day plus FOLFIRI
[6] = following intravenous administration; no reference given; cited from earlier work
[7] = 45 mg per day pimasertib cohort
[8] = median, irinotecan 180 mg m^−2 infusion, day 1, with pimasertib (test)
[9] = median, irinotecan 180 mg m^−2 infusion, day 15, without pimasertib (reference)

CCc1c2c(nc3ccc(O)cc13)-c1cc3c(c(=O)n1C2)COC(=O)[C@]3(O)CC [SN-38]
increase in Cmax with coadministration of pimasertib [1, 7]: 11% | reduction of exposure (AUC0–∞) in the presence of pimasertib [1, 7]: 9% | Ratio of AUC(0–∞) test/reference ([1]; median): 0.91 | Ratio of Cmax test/reference ([1]; median): 1.11 | AUC(0–t) [1, 8]: 150 ng·h/mL | AUC(0–∞) [1, 8]: 198 ng·h/mL | Cmax [1, 8]: 20.4 ng/mL | T1/2 [1, 8]: 13.6 h | AUC(0–t) [1, 9]: 146 ng·h/mL | AUC(0–∞) [1, 9]: 206 ng·h/mL | Cmax [1, 9]: 15.1 ng/mL | T1/2 [1, 9]: 15.7 h | Tmax [1, 9]: 1.6 h

O=C(NC[C@H](O)CO)c1ccncc1Nc1ccc(I)cc1F [pimasertib, Pimasertib]
patients who experienced a DLT ([2]; DLT analysis set, 15 patients, both dose levels): three | DLTs ([2]; first three patients, 45 mg per day): no DLTs | reduction of exposure (AUC0–∞) in the presence of FOLFIRI ([3]; 45 mg per day cohort): 8.3% | reduction of maximum plasma concentration (Cmax) in the presence of FOLFIRI ([3]; 45 mg per day cohort): 16.3% | Ratio of AUC(0–∞) test/reference ([3]; 45 mg per day): 0.917 | Ratio of Cmax test/reference ([3]; 45 mg per day): 0.837 | Ratio of AUC(0–∞) test/reference ([3]; 60 mg per day): 0.825 | Ratio of Cmax test/reference ([3]; 60 mg per day): 0.751 | CL/f ([3]; single 45 mg dose, day 1, with FOLFIRI (test)): 38.7 L/h | CL/f ([3]; single 45 mg dose, day 8, alone (reference)): 34.2 L/h | CL/f ([3]; single 60 mg dose, day 1, with FOLFIRI (test)): 42.1 L/h | CL/f ([3]; single 60 mg dose, day 8, alone (reference)): 44.6 L/h | Patients with ≥1 pimasertib-related TEAE (by worst grade) ([4]; 45 mg per day (n=10), grade 1/2): 5 | Patients with ≥1 pimasertib-related TEAE (by worst grade) ([4]; 45 mg per day (n=10), grade 3): 5 | Patients with ≥1 pimasertib-related TEAE (by worst grade) ([4]; 45 mg per day (n=10), grade 4): 0 | incidence of grade ≥3 pimasertib-related TEAEs ([4]; 45 mg per day dose): 50.0% | Patients with ≥1 pimasertib-related TEAE (by worst grade) ([4]; 60 mg per day (n=6), grade 1/2): 2 | Patients with ≥1 pimasertib-related TEAE (by worst grade) ([4]; 60 mg per day (n=6), grade 3): 2 | Patients with ≥1 pimasertib-related TEAE (by worst grade) ([4]; 60 mg per day (n=6), grade 4): 2 | incidence of grade ≥3 pimasertib-related TEAEs ([4]; 60 mg per day dose): 66.7% | Patients with ≥1 pimasertib-related TEAE (by worst grade) ([4]; Overall (n=16), grade 1/2): 7 | Patients with ≥1 pimasertib-related TEAE (by worst grade) ([4]; Overall (n=16), grade 3): 7 | Patients with ≥1 pimasertib-related TEAE (by worst grade) ([4]; Overall (n=16), grade 4): 2 | time to resolution of ocular AEs from day of onset ([4]; all events except SRD in two patients): 3 to 139 days | Asthenia, pimasertib-related TEAE, patients ([4]; overall n=16): 37.5% | Diarrhoea, pimasertib-related TEAE, patients ([4]; overall n=16): 62.5% | Serous retinal detachment (SRD), pimasertib-related TEAE, patients ([4]; overall n=16): 37.5% | Skin/rash, pimasertib-related TEAE, patients ([4]; overall n=16): 50% | patients with at least one ocular event during trial treatment ([4]; overall n=16): 43.8% | patients with skin/rash events ([4]; overall n=16): 56.3% | recommended single-agent dose for phase II trials ([5]; administered continuously): 60 mg twice-daily | dose-limiting toxicities ([5]; single-agent phase I dose-escalation trial): skin rash, acneiform dermatitis, ocular events and stomatitis | effect on 5-FU metabolism (human liver microsomes): does not alter 5-FU metabolism | stable disease maintained for at least 12 weeks, share of the nine SD patients (KRAS mt mCRC): 66.7% | partial response as best overall response, patients (KRAS mt mCRC; efficacy analysis set n=15): 13.3% | progressive disease as best overall response, patients (KRAS mt mCRC; efficacy analysis set n=15): 20.0% | stable disease as best overall response, patients (KRAS mt mCRC; efficacy analysis set n=15): 60.0%

CCc1c2c(nc3ccc(OC(=O)N4CCC(N5CCCCC5)CC4)cc13)-c1cc3c(c(=O)n1C2)COC(=O)[C@]3(O)CC [Irinotecan, irinotecan, reference compound]
reduction of Cmax in the presence of pimasertib [1, 7]: 2.7% | reduction of exposure (AUC0–∞) in the presence of pimasertib [1, 7]: 8.9% | AUC(0-inf) ([1]; human, in vivo, 180 mg m^−2, AUC(0–∞), median, irinotecan 180 mg m^−2 infusion, day 1, with pimasertib (test)): 10600 ng·h/mL | Cmax ([1]; human, in vivo, 180 mg m^−2, Cmax, median, irinotecan 180 mg m^−2 infusion, day 15, without pimasertib (reference)): 2120 ng/mL | Tmax ([1]; human, in vivo, 180 mg m^−2, Tmax, median, irinotecan 180 mg m^−2 infusion, day 1, with pimasertib (test)): 1.5 h | Ratio of AUC(0–∞) test/reference ([1]; median): 0.911 | Ratio of Cmax test/reference ([1]; median): 0.973 | Tmax [1, 9]: 1.54 h

O=c1[nH]cc(F)c(=O)[nH]1 [5-FU, 5-fluorouracil]
mean apparent terminal half-life [6]: ~0.267 h
